From publication PMC7171691 (Journal of Tropical Medicine, 2020)
≈ marks a conversion by molar mass, not a printed value. Entries after “also recorded” stand apart in the source; their conditions may differ. Read-outs that look alike come from different tables or passages of the source.

How the values were obtained:
[1] = system: P. falciparum 3D7 strains (CQ sensitive); test: In vitro drug sensitivity, tritiated hypoxanthine incorporation assay; type: cell-based, Plasmodium falciparum; conditions: P. falciparum 3D7, CQ sensitive, [3H]hypoxanthine uptake, 48 hours
Protocol: Further dilutions were prepared on the day of biological assays. All the drug solutions were stored at 4°C for later use.

P. berghei ANKA = test: In vivo efficacy, 4-day oral treatment of infected mice; parameters: species or system Plasmodium berghei in female Swiss albino mice; conditions: for ED50: P. berghei ANKA sensitive strain in mice, four days of oral treatment; for Average parasitaemia, Day 7 / Average parasitaemia, Day 9 / Average parasitaemia, Day 11: after stopping the treatment with 10 mg/kg; for Number of mice which survived up to 11 days: 5 mice per group
Protocol: Female Swiss albino mice were collected and kept in the animal house of the Center for Biotechnology and Research Development at the Kenya Medical Research Institute (KEMRI), where the animal experiments were carried out. The animals were six weeks old, weighing 20 to 22 g, and they were kept in mice cages and were allowed to access mice pencils (Ungafeed Company Ltd) and water before experimental testing. Plasmodium berghei ANKA strains, sensitive to quinolone and artemisinin-based drugs, were obtained from the Unit of Malaria, Center for Biotechnology and Research and Development, Kenya Medical Research Institute. Parasites were maintained and cryopreserved in a freezer (−80°C). The parasite was subsequently maintained in the laboratory by serial blood passage from mouse to mouse on a weekly basis.
This consisted of in vivo evaluation of hybrid drug against P. berghei ANKA, a rodent parasite which is commonly used in antimalarial studies. Female Swiss albino donor mouse was injected intraperitoneally with 0.2 ml of inoculums of 1 × 10^7 parasitized erythrocytes, and P. berghei ANKA strain was obtained from the donor mouse. Parasitaemia was assessed after 5 days under microscope using the Giemsa staining technique. The donor mouse was sedated using carbon dioxide to collect blood via cardiac puncture in a heparinized tube using a syringe and a needle. Carcasses were pooled in a biohazard container and stored at room temperature while waiting to be incinerated. Afterward, the experimental mice were infected with inoculums of 1 × 10^7 parasitized erythrocytes using an intraperitoneal method. The mice were grouped into five groups consisting of 5 mice per group. […] Blood for making thin blood smear was collected from the tip of the mouse tail. The efficacy of the drug was measured by comparison of blood parasitaemia after the four days of therapy (i.e., on day 5 postinfection). The ones still alive at the end of the experiments were killed by using carbon dioxide gas followed by incineration.
The determination of the dose to be administered was calculated individually according to each mouse weight. In this regard, these formulas were applied: HED (mg/kg) = Animal Dose (mg/kg) ∗ [Animal km/Human km], where HED stands for human equivalent dose and km which is a conversion factor. With km (a constant) = Weight/Body surface area. For mice of 0.02 kg, with a body surface area of 0.007, km = 0.02/0.007 = 3 [15].(3) Dosage mg/kg =Drug concentration mg/ml∗Volume ml/Body weightkg.
From formula (2),(4) Volume ml of drug to be given to each mouse=Body weight kg∗Dosage mg/kg/Drug concentration mg/ml .
The parasitaemia was checked for every 24 hours from the time of infection for 4 days. Thin blood smears were prepared from each mouse tail venous blood. The smears were prepared by the Giemsa staining technique, and the parasitaemia of individual mouse had been checked using a light microscope. The following formula was used to calculate the percentage parasitaemia:(5) The Percentage of parasitaemia=Number of parasitized RBCs/field/Total number of RBCs/field ∗100.
After 4 days, the percentage (%) chemosuppression of each drug was determined using the following formula [17]:(6) Percentage chemosuppression= 100−A−B/A×100, where A is the mean parasitaemia in the negative control group and B is the parasitaemia in the test group. The dose that cured 50% of infected animals had been determined as effective dose (ED50) using a nonlinear regression logistic dose-response model.

acute falciparum malaria = conditions: patients, 0 to 250 mg artesunate together with a curative dose of mefloquine; cited from earlier work
MTT cytotoxicity assay = type: cell-based, African green monkey (Cercopithecus aethiops); conditions: African green monkey (Cercopithecus aethiops)
Protocol: To conduct in vitro toxicity, stock solutions of the test compound and reference drugs were prepared with sterile water. […] The test samples were prepared as a 1 mg·ml^−1 stock solution. Further dilutions were prepared on the day of biological assays. All the drug solutions were stored at 4°C for later use. Vero cells (Vero E-6) were obtained from the Center for Traditional Medicine Drugs and Research (CTMDR), KEMRI. Vero cells are kidney cells extracted from an African green monkey (Cercopithecus aethiops). […] Cells were maintained in Minimum Essential Eagle's Medium (MEM) containing 10% fetal bovine serum (FBS), PenStrep, and glutamine. Vero cells were cultured using T-75 culture flasks. The flasks were kept at 37°C in 5% CO2, and the cells were passaged every 2 to 3 days to keep the cells alive. Trypsinization was carried out to detached cells which overlap each other and counted using a hemocytometer (Neubauer).
Using a 96-microwell plate, a cell density of 20,000 vero cells were seeded and incubated for 24 hours at 37°C under 5% CO2 to allow cells to attach to the surface/base of the plate. […] The plates were incubated for 48 hours at 37°C under 5% CO2 to allow the reaction to occur. After 48 hours, 0.5 mg/ml of 3-(4, 5-dimethylthiazol-2-yl)-2,5-diphenyltetra-zolium bromide (MTT) was added for calorimetric measurement of the ability of a drug to kill the vero cell lines. The plates were incubated at 37°C for 3 hours. 100 μL of 100% DMSO was added to each well and mixed to ensure cell lysis and dissolving of the formazan crystals. Doxorubicin was used as a control drug.
The amount of formazan measured was directly proportional to the number of viable cells.

[2] = parameters: method as in PMID 23433124; conditions: cited from earlier work
[3] = parameters: method as in PMID 21189459; conditions: 20 mg/kg, oral route, mice; cited from earlier work
vero cells = conditions: cited from earlier work
Solubility observations = type: physicochemical; conditions: water
[4] = 10 mg/kg oral, after 4 days of treatment

Molecule	IC50 [1]	Percentage of chemosupression of parasitaemia (P. berghei ANKA; [4]) [%]	ED50 (P. berghei ANKA)	Average parasitaemia, Day 7 (P. berghei ANKA) [%]	Average parasitaemia, Day 9 (P. berghei ANKA) [%]	Average parasitaemia, Day 11 (P. berghei ANKA) [%]	Number of mice which survived up to 11 days (P. berghei ANKA; dosage 0.625 mg/kg oral)	Number of mice which survived up to 11 days (P. berghei ANKA; dosage 1.25 mg/kg oral)	Number of mice which survived up to 11 days (P. berghei ANKA; dosage 2.5 mg/kg oral)	Number of mice which survived up to 11 days (P. berghei ANKA; dosage 5 mg/kg oral)	Number of mice which survived up to 11 days (P. berghei ANKA; dosage 10 mg/kg oral)	CC50 at 48 h (MTT cytotoxicity assay) [µg/mL]	other results
3-chloro-4-(4-chlorophenoxy) aniline	0.02286 ± 0.00126 µg/mL	68	3.61 mg/kg	6.97	9.03	11.84	1	3	3	2	4		
C[C@H]1[C@H](OC(=O)CCC(=O)Nc2ccc(Oc3ccc(Cl)cc3)c(Cl)c2)O[C@@H]2O[C@@]3(C)CC[C@H]4[C@H](C)CC[C@@H]1[C@@]24OO3 [Artesunate-aniline hybrid]			3.56 mg/kg				1	3	3	2	3		
C[C@H]1[C@H](OC(=O)CCC(=O)O)O[C@@H]2O[C@@]3(C)CC[C@H]4[C@H](C)CC[C@@H]1[C@@]24OO3 [Artesunate]		100		0.00	0.2	0.67	2	3	4	3	5	19.7 (≈ 51.2 µM)	IC50 ([1]; Plasmodium falciparum, read-out: IC50): 0.00263 ± 0.00038 µg/mL (≈ 0.00684 µM); ED50 (acute falciparum malaria): 1.6 mg/kg; Parasites observed under the microscope (P. berghei ANKA; [4]): No parasites were observed; ED50 (P. berghei ANKA; Plasmodium berghei, 96 h, read-out: ED50): 2.94 mg/kg; Number of mice which survived up to 11 days (P. berghei ANKA; dosage 10 mg/kg oral, listed as artesunate): all mice; ED50 ([2]; intraperitoneal route): < 1 mg/kg; ED50 ([2]; oral route, artesunate with 80 mg/kg as highest dosage): 1.8 mg/kg
CCN(CC)CCCC(C)Nc1ccnc2cc(Cl)ccc12 (stereo not drawn) [Chloroquine]		100		0.00	0.03	0.42	3	3	4	4	5		Chemosupression [3]: 100%; Concentrations not revealing cytotoxicity effects (vero cells): ≤ 50 µg/mL; Concentrations showing major cytotoxicity (vero cells): ≥ 500 µg/mL; Number of mice which survived up to 11 days (P. berghei ANKA; dosage 10 mg/kg oral, listed as chloroquine): all mice
COc1cccc2c1C(=O)c1c(O)c3c(c(O)c1C2=O)C[C@@](O)(C(=O)CO)C[C@@H]3O[C@H]1C[C@H](N)[C@H](O)[C@H](C)O1 [Doxorubicin]												1.96 (≈ 3.61 µM)	
CNCC(=O)O [Sarcosine, N-methyl glycine]	did not show in vitro activity; also recorded: No activity		did not show in vivo activity; also recorded: No activity				0	1	1	2	1		ED50 (P. berghei ANKA; listed as sarcosine): not detectable; Solubility in water (Solubility observations): completely soluble
